Measurements taken from PubChem BioAssay (NCI).
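Interpolation was linear, between the two tested concentrations surrounding the appropriate level; five concentrations were tested over 48 hours in 96-well plates. GI50 = concentration required for 50% inhibition of growth. TGI denotes the concentration required for complete inhibition of growth.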

Assays:
Assay in all cases: NCI-60 cell line screen, 48 h
[1] = tested on: COLO 205 colon
[2] = tested on: SF-268 CNS
[3] = tested on: SNB-75 CNS
[4] = tested on: OVCAR-4 ovarian
[5] = tested on: LOX IMVI melanoma
[6] = tested on: SR leukemia
[7] = tested on: HCC-2998 colon
[8] = tested on: HCT-15 colon
[9] = tested on: OVCAR-8 ovarian
[10] = tested on: NCI-H522 lung

SMILES	GI50 [1]	TGI [1]	GI50 [2]	TGI [2]	GI50 [3]	TGI [3]	GI50 [4]	TGI [4]	GI50 [5]	TGI [5]	GI50 [6]	TGI [6]	GI50 [7]	TGI [7]	GI50 [8]	TGI [8]	GI50 [9]	TGI [9]	GI50 [10]	TGI [10]
COc1ccc(C2SC(C)C(=O)N2NC(=O)C(O)c2ccccc2)cc1OC (stereo not given)	> 100 µM	> 100 µM	> 100 µM	> 100 µM	> 100 µM	> 100 µM	> 100 µM	> 100 µM	> 100 µM	> 100 µM	> 100 µM	> 100 µM	> 100 µM	> 100 µM	> 100 µM	> 100 µM	> 100 µM	> 100 µM	> 100 µM	> 100 µM
COc1ccc(OC)c(-c2c(C#N)c(N)nc(N3CCOCC3)c2C#N)c1	> 100 µM	> 100 µM	> 100 µM	> 100 µM	12.9 µM	57.4 µM	43.6 µM	> 100 µM	> 100 µM	> 100 µM	36.3 µM	> 100 µM	72.7 µM	> 100 µM	> 100 µM	> 100 µM	79.1 µM	> 100 µM	46.2 µM	> 100 µM
O=c1nc2oc3ccc4ccccc4c3cc-2s1	16.3 µM	> 100 µM	7.97 µM	> 100 µM	0.476 µM	10.1 µM	58.4 µM	> 100 µM	4.09 µM	> 100 µM	0.458 µM	> 100 µM	> 100 µM	> 100 µM	> 45.7 µM	> 100 µM	29.4 µM	> 100 µM	0.596 µM	> 100 µM
C=C1C(=O)OC2/C=C(/C)C(OC(C)=O)CC(O)/C(C)=C\C(OC(=O)/C(C)=C\C)C12 (stereo not given)	–	> 100 µM	–	> 100 µM	–	> 100 µM	–	> 100 µM	–	> 100 µM	–	> 100 µM	–	> 100 µM	–	> 100 µM	–	> 100 µM	–	22.7 µM
C[Si](C)(C)c1ccc(-c2sc(-c3ccc([Si](C)(C)C)s3)c3c2C[Si]2(C3)Cc3c(-c4ccc([Si](C)(C)C)s4)sc(-c4ccc([Si](C)(C)C)s4)c3C2)s1	–	> 100 µM	–	> 100 µM	–	> 100 µM	–	> 100 µM	–	> 100 µM	–	> 100 µM	–	> 100 µM	–	> 100 µM	–	> 100 µM	–	> 100 µM
CS[C@]12C(=O)C[C@@]3(C)[C@@H](CC[C@]3(O)C(=O)CO)[C@@H]1CCC1=CC(=O)CC[C@@]12C	–	> 100 µM	–	> 100 µM	–	> 100 µM	–	> 100 µM	–	> 100 µM	–	> 100 µM	–	80.2 µM	–	> 100 µM	–	> 100 µM	–	> 100 µM
C/C=C(\C)C(=O)O[C@H]1C=CC(=O)O[C@@H]1CC[C@H](O)[C@H](C)O	30.6 µM	72.6 µM	28.8 µM	> 100 µM	33.3 µM	78.9 µM	41.6 µM	97.5 µM	27.5 µM	> 78.7 µM	4.7 µM	42.8 µM	64.6 µM	> 100 µM	28.6 µM	> 80.3 µM	52.5 µM	> 100 µM	18 µM	43.4 µM
COc1cc([C@H]2OC[C@H]3[C@@H]2CO[C@@H]3c2cc(OC)c3c(c2)OCO3)cc(OC)c1OC	–	> 100 µM	–	> 100 µM	–	> 100 µM	–	> 100 µM	–	> 100 µM	–	> 100 µM	–	> 100 µM	–	> 100 µM	–	> 100 µM	–	> 100 µM
Nc1nc(Nc2ccc(C3CCC(N4CCOCC4)CC3)cc2)nn1-c1ccccn1 (stereo not given)	5.17 µM	> 100 µM	2.93 µM	> 100 µM	1.9 µM	11.9 µM	12.4 µM	> 84.9 µM	3.24 µM	9.37 µM	0.366 µM	3.29 µM	17.2 µM	> 100 µM	3.6 µM	> 100 µM	11.6 µM	> 100 µM	8.51 µM	32.7 µM
O=[N+]([O-])c1cccc([As]=[As]c2cccc([N+](=O)[O-])c2)c1 (stereo not given)	0.0663 µM	0.18 µM	0.0819 µM	0.228 µM	0.0611 µM	0.206 µM	0.0921 µM	0.308 µM	0.0452 µM	0.146 µM	0.0275 µM	0.1 µM	0.13 µM	0.275 µM	0.0437 µM	0.174 µM	0.141 µM	0.284 µM	0.0154 µM	0.0304 µM
O=C(/C=C/c1ccc([N+](=O)[O-])cc1)c1ccc2c3c(cccc13)CC2	4.98 µM	> 25.4 µM	8.18 µM	> 100 µM	4.95 µM	23.8 µM	13.5 µM	> 100 µM	4.26 µM	17.6 µM	2.02 µM	24.9 µM	26.9 µM	> 78.1 µM	5.07 µM	> 100 µM	22.2 µM	> 100 µM	9.77 µM	34.5 µM
Cn1cc(C2=C(c3cccc(OCC(O)CO)c3)C(=O)NC2=O)c2ccccc21 (stereo not given)	> 25 µM	> 25 µM	> 25 µM	> 25 µM	5.86 µM	> 25 µM	> 25 µM	> 25 µM	> 25 µM	> 25 µM	> 25 µM	> 25 µM	> 25 µM	> 25 µM	> 25 µM	> 25 µM	> 25 µM	> 25 µM	> 25 µM	> 25 µM
O=C(Nc1ccc(Cl)cc1)Nc1ccc(Nc2nncc3ccccc23)cc1	2.77 µM	9.58 µM	3.19 µM	28.1 µM	1.88 µM	8.67 µM	1.97 µM	8.17 µM	0.825 µM	14.6 µM	3.89 µM	23.4 µM	3.26 µM	19.8 µM	1.59 µM	11.8 µM	3.12 µM	12.4 µM	1.32 µM	8.81 µM
